According to PubChem BioAssay AID1259407 (Chemical Carcinogenesis Research Information System (CCRIS), 2018):
Active and inactive are the calls of the source. How the calls were made is not given here.

Test system: CCRIS mutagenicity, Ames/micronucleus/aberration tests
Experiment: CCRIS mutagenicity studies
[1] = Test System: AMES SALMONELLA TYPHIMURIUM, Strain/Indicator: TA98, Metabolic Activation: NONE, Method: STANDARD PLATE
[2] = Test System: AMES SALMONELLA TYPHIMURIUM, Strain/Indicator: TA100, Metabolic Activation: NONE, Method: STANDARD PLATE
[3] = Test System: AMES SALMONELLA TYPHIMURIUM, Strain/Indicator: TA102, Metabolic Activation: NONE, Method: STANDARD PLATE

CCCCOCCO
mutagenic call (Test System: AMES SALMONELLA TYPHIMURIUM, Strain/Indicator: TA97, Metabolic Activation: HAMSTER, LIVER, S-9, AROCLOR 1254 (10 OR 30%), Method: PREINCUBATION): inactive; negative
mutagenic call (Test System: AMES SALMONELLA TYPHIMURIUM, Strain/Indicator: TA97, Metabolic Activation: NONE, Method: PREINCUBATION): inactive; negative
mutagenic call (Test System: AMES SALMONELLA TYPHIMURIUM, Strain/Indicator: TA97, Metabolic Activation: RAT, LIVER, S-9, AROCLOR 1254 (5, 10 OR 30%), Method: PREINCUBATION): inactive; negative
mutagenic call (Test System: AMES SALMONELLA TYPHIMURIUM, Strain/Indicator: TA97A, Metabolic Activation: RAT, LIVER, S-9, AROCLOR 1254 (2.5 OR 10%), Method: STANDARD PLATE): inactive; negative
mutagenic call (Test System: AMES SALMONELLA TYPHIMURIUM, Strain/Indicator: TA97A, Metabolic Activation: RAT, LIVER, S-9, AROCLOR 1254, Method: STANDARD PLATE): active; positive
mutagenic call (Test System: AMES SALMONELLA TYPHIMURIUM, Strain/Indicator: TA98, Metabolic Activation: HAMSTER, LIVER, S-9, AROCLOR 1254 (10 OR 30%), Method: PREINCUBATION): inactive; negative
mutagenic call (Test System: AMES SALMONELLA TYPHIMURIUM, Strain/Indicator: TA98, Metabolic Activation: NONE, Method: PREINCUBATION): inactive; negative
mutagenic call [1]: inactive; negative
mutagenic call (Test System: AMES SALMONELLA TYPHIMURIUM, Strain/Indicator: TA98, Metabolic Activation: RAT, LIVER, S-9, AROCLOR 1254 (10 OR 30%), Method: PREINCUBATION): inactive; negative
mutagenic call (Test System: AMES SALMONELLA TYPHIMURIUM, Strain/Indicator: TA98, Metabolic Activation: RAT, LIVER, S-9, AROCLOR 1254, Method: STANDARD PLATE): inactive; negative
mutagenic call (Test System: AMES SALMONELLA TYPHIMURIUM, Strain/Indicator: TA100, Metabolic Activation: HAMSTER, LIVER, S-9, AROCLOR 1254 (10 OR 30%), Method: PREINCUBATION): inactive; negative
mutagenic call (Test System: AMES SALMONELLA TYPHIMURIUM, Strain/Indicator: TA100, Metabolic Activation: NONE, Method: PREINCUBATION): inactive; negative
mutagenic call [2]: inactive; negative
mutagenic call (Test System: AMES SALMONELLA TYPHIMURIUM, Strain/Indicator: TA100, Metabolic Activation: RAT, LIVER, S-9, AROCLOR 1254 (2.5 OR 10%), Method: STANDARD PLATE): inactive; negative
mutagenic call (Test System: AMES SALMONELLA TYPHIMURIUM, Strain/Indicator: TA100, Metabolic Activation: RAT, LIVER, S-9, AROCLOR 1254 (10 OR 30%), Method: PREINCUBATION): inactive; negative
mutagenic call (Test System: AMES SALMONELLA TYPHIMURIUM, Strain/Indicator: TA100, Metabolic Activation: RAT, LIVER, S-9, AROCLOR 1254, Method: STANDARD PLATE): inactive; negative
mutagenic call [3]: inactive; negative
mutagenic call (Test System: AMES SALMONELLA TYPHIMURIUM, Strain/Indicator: TA102, Metabolic Activation: RAT, LIVER, S-9, AROCLOR 1254, Method: STANDARD PLATE): inactive; negative
mutagenic call (Test System: AMES SALMONELLA TYPHIMURIUM, Strain/Indicator: TA1535, Metabolic Activation: HAMSTER, LIVER, S-9, AROCLOR 1254 (10 OR 30%), Method: PREINCUBATION): inactive; negative
mutagenic call (Test System: AMES SALMONELLA TYPHIMURIUM, Strain/Indicator: TA1535, Metabolic Activation: NONE, Method: PREINCUBATION): inactive; negative
mutagenic call (Test System: AMES SALMONELLA TYPHIMURIUM, Strain/Indicator: TA1535, Metabolic Activation: RAT, LIVER, S-9, AROCLOR 1254 (10 OR 30%), Method: PREINCUBATION): inactive; negative
mutagenic call (Test System: AMES SALMONELLA TYPHIMURIUM, Strain/Indicator: TA1537, Metabolic Activation: HAMSTER, LIVER, S-9, AROCLOR 1254 (30%), Method: PREINCUBATION): inactive; negative
mutagenic call (Test System: AMES SALMONELLA TYPHIMURIUM, Strain/Indicator: TA1537, Metabolic Activation: NONE, Method: PREINCUBATION): inactive; negative
mutagenic call (Test System: AMES SALMONELLA TYPHIMURIUM, Strain/Indicator: TA1537, Metabolic Activation: RAT, LIVER, S-9, AROCLOR 1254 (30%), Method: PREINCUBATION): inactive; negative
mutagenic call (Test System: CHINESE HAMSTER OVARY, Strain/Indicator: CHO-AS52/6-THIOGUANINE, Metabolic Activation: NONE): inactive; negative
mutagenic call (Test System: CHINESE HAMSTER V-79, Strain/Indicator: V-79 (HPRT)/6-THIOGUANINE, Metabolic Activation: NONE): active; positive
mutagenic call (Test System: E. COLI, Strain/Indicator: WP2 UVRA, Metabolic Activation: NONE, Method: STANDARD PLATE): inactive; negative
mutagenic call (Test System: E. COLI, Strain/Indicator: WP2 UVRA, Metabolic Activation: RAT, LIVER, S-9, AROCLOR 1254 (2.5 OR 10%), Method: STANDARD PLATE): inactive; negative

CC1(C)C=C(C(=O)O)C(C)(C)N1[O]
mutagenic call [1]: inactive; negative
mutagenic call [2]: inactive; negative
mutagenic call (Test System: AMES SALMONELLA TYPHIMURIUM, Strain/Indicator: TA102, Metabolic Activation: NONE, Method: STANDARD): inactive; negative
mutagenic call [3]: inactive; negative
mutagenic call (Test System: AMES SALMONELLA TYPHIMURIUM, Strain/Indicator: TA102, Metabolic Activation: XANTHINE OXIDASE, Method: STANDARD PLATE): inactive; negative
mutagenic call (Test System: AMES SALMONELLA TYPHIMURIUM, Strain/Indicator: TA104, Metabolic Activation: NONE, Method: STANDARD PLATE): inactive; negative
mutagenic call (Test System: AMES SALMONELLA TYPHIMURIUM, Strain/Indicator: TA104, Metabolic Activation: XANTHINE OXIDASE, Method: STANDARD PLATE): inactive; negative

O=S=O
mutagenic call (End Point: IN VIVO CHROMOSOMAL ABERRATIONS, Test System: BONE MARROW CELLS, Species: MOUSE, Strain/Sex: KUNMING/MALE, FEMALE, Route: INHALATION): active; positive; exposure up to 5 d not effective
